These results are taken from patent publication US11746100B2 (GLOBAL BLOOD THERAPEUTICS, INC., priority 2020, dated 2023).

This assay has as its target T1, human ferroportin (Homo sapiens, UniProt Q9NP59).
T1 construct: luciferase reporter (read with the Nano-Glo Luciferase Assay System); expressed in transfected cells; host or cells: CHO cells, stably transfected, expression induced with doxycycline
T1 sequence (Q9NP59 1-571): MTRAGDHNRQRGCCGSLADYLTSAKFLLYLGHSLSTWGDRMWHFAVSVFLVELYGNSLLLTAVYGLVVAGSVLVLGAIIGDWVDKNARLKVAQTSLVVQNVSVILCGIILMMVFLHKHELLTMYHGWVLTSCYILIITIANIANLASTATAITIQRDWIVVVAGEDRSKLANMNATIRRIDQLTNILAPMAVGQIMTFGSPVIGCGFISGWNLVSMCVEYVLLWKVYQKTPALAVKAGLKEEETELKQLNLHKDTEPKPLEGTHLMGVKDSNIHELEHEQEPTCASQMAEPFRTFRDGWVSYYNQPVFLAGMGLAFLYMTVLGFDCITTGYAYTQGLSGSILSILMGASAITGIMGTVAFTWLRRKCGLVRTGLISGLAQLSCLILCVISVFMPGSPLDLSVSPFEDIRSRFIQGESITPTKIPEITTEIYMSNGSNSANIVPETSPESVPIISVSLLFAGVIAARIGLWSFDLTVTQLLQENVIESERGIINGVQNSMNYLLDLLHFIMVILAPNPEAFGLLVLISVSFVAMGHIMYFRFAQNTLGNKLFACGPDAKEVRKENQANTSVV
As to the kind of experiment: Biological in-vitro ferroportin internalization assay (luciferase reporter). The class given is cell-based. The following applies: average pEC50; stably-transfected CHO cell line expressing human ferroportin tagged to a luciferase reporter; 6 h incubation with test compound. The procedure, abridged:
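Stably transfected CHO cells expressing luciferase-tagged human ferroportin, plated 24 h with ferric ammonium citrate and induced with doxycycline for 24 h. Compounds incubated 6 h, then luciferase activity measured by Nano-Glo; average pEC50 reported.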
In general terms: A reporter such as luciferase makes a cellular process visible.
Turning to `COc1ccnc(-c2nc3c(c(N(C)CC(=O)NCCO)n2)CCC3)c1` [Compound 133, N-(2-hydroxyethyl)-2-{[2-(4-methoxypyridin-2-yl)-5H,6H,7H-cyclopenta[d]pyrimidin-4-yl](methyl)amino}acetamide], the pEC50 was 7.

Consider `COc1ccnc(-c2nc3c(c(N(C)CC(=O)NC4CCOCC4)n2)CCC3)c1` [Compound 134, 2-{[2-(4-methoxypyridin-2-yl)-5H,6H,7H-cyclopenta[d]pyrimidin-4-yl](methyl)amino}-N-(oxan-4-yl)acetamide], for which the pEC50 came out at 6.9.

As for `COc1ccnc(-c2nc3c(c(N(C)CC(=O)NC4CCOC4)n2)CCC3)c1` (centres unmarked) [Compound 135, 2-{[2-(4-methoxypyridin-2-yl)-5H,6H,7H-cyclopenta[d]pyrimidin-4-yl](methyl)amino}-N-(oxolan-3-yl)acetamide], the pEC50 was 7.4.

`COc1ccnc(-c2nc3c(c(N(C)CC(=O)NC(C)(C)CO)n2)CCC3)c1` [Compound 136, N-(1-hydroxy-2-methylpropan-2-yl)-2-{[2-(4-methoxypyridin-2-yl)-5H,6H,7H-cyclopenta[d]pyrimidin-4-yl](methyl)amino}acetamide] showed a pEC50 of 7.7.

On to `COc1ccnc(-c2nc3c(c(N(C)CC(=O)NC4CCCCC4)n2)CCC3)c1` [Compound 137, N-cyclohexyl-2-{[2-(4-methoxypyridin-2-yl)-5H,6H,7H-cyclopenta[d]pyrimidin-4-yl](methyl)amino}acetamide], for which the negative logarithm of the EC50 (pEC50) is listed as 7.8.

`COc1ccnc(-c2nc3c(c(N(C)CC(=O)Nc4cccc(F)c4)n2)CCC3)c1` [Compound 138, N-(3-fluorophenyl)-2-{[2-(4-methoxypyridin-2-yl)-5H,6H,7H-cyclopenta[d]pyrimidin-4-yl](methyl)amino}acetamide] displayed a pEC50 of 7.8.

With `COCC(C)(C)NC(=O)CN(C)c1nc(-c2cc(OC)ccn2)nc2c1CCC2` [Compound 139, N-(1-methoxy-2-methylpropan-2-yl)-2-{[2-(4-methoxypyridin-2-yl)-5H,6H,7H-cyclopenta[d]pyrimidin-4-yl](methyl)amino}acetamide], the pEC50 is recorded as 7.5.

For `CN(CC(=O)NC1CCOCC1)c1nc(-c2cc(OCCO)ccn2)nc2c1CCC2` [Compound 140, 2-({2-[4-(2-hydroxyethoxy)pyridin-2-yl]-5H,6H,7H-cyclopenta[d]pyrimidin-4-yl}(methyl)amino)-N-(oxan-4-yl)acetamide], the pEC50 came to 7.

Consider `COc1ccnc(-c2nc3c(c(N(C)CC(=O)N[C@@H]4CCCC[C@H]4O)n2)CCC3)c1` [Compound 141, N-[(1R,2R)-2-hydroxycyclohexyl]-2-{[2-(4-methoxypyridin-2-yl)-5H,6H,7H-cyclopenta[d]pyrimidin-4-yl](methyl)amino}acetamide], for which the pEC50 is on record as 7.1.

As for `CN(CC(=O)NC1CCCCC1)c1nc(-c2cn(C)cn2)nc2c1CCC2` [Compound 142, N-cyclohexyl-2-{methyl[2-(1-methyl-1H-imidazol-4-yl)-5H,6H,7H-cyclopenta[d]pyrimidin-4-yl]amino}acetamide], the negative-log EC50 (pEC50) came to 7.4.

`CN(CC(=O)NC(C)(C)CO)c1nc(-c2cn(C)cn2)nc2c1CCC2` [Compound 143, N-(1-hydroxy-2-methylpropan-2-yl)-2-{methyl[2-(1-methyl-1H-imidazol-4-yl)-5H,6H,7H-cyclopenta[d]pyrimidin-4-yl]amino}acetamide] showed a pEC50 of 7.2.

As for `CN(CC(=O)NC1CCCCC1)c1nc(-c2cc(OCCO)ccn2)nc2c1CCC2` [Compound 144, N-cyclohexyl-2-({2-[4-(2-hydroxyethoxy)pyridin-2-yl]-5H,6H,7H-cyclopenta[d]pyrimidin-4-yl}(methyl)amino)acetamide], the pEC50 stood at 7.5.

In turn, `COc1cnc(-c2nc3c(c(N(C)CC(=O)NC(C)(C)C)n2)CCC3)cc1OC` [Compound 145, N-tert-butyl-2-{[2-(4,5-dimethoxypyridin-2-yl)-5H,6H,7H-cyclopenta[d]pyrimidin-4-yl](methyl)amino}acetamide] came in with a pEC50 of 6.9.

Compound `COc1ccnc(-c2nc3c(c(N(C)CC(=O)NC4(C)CCOC4)n2)CCC3)c1` (centres unmarked) [Compound 146, 2-{[2-(4-methoxypyridin-2-yl)-5H,6H,7H-cyclopenta[d]pyrimidin-4-yl](methyl)amino}-N-(3-methyloxolan-3-yl)acetamide] gave a pEC50 of 6.8.

As to `CN(CC(=O)NC1(C)CCOC1)c1nc(-c2cn(C)cn2)nc2c1CCC2` (centres unmarked) [Compound 147, 2-{methyl[2-(1-methyl-1H-imidazol-4-yl)-5H,6H,7H-cyclopenta[d]pyrimidin-4-yl]amino}-N-(3-methyloxolan-3-yl)acetamide], the pEC50 was 6.7.

`CN(CC(=O)NC(C)(C)CO)c1nc(-c2cc(OCCO)ccn2)nc2c1CCC2` [Compound 148, N-(1-hydroxy-2-methylpropan-2-yl)-2-({2-[4-(2-hydroxyethoxy)pyridin-2-yl]-5H,6H,7H-cyclopenta[d]pyrimidin-4-yl}(methyl)amino)acetamide] registered a pEC50 of 7.6.

Compound `CN(CC(=O)NC1CCOC1)c1nc(-c2cc(OCCO)ccn2)nc2c1CCC2` (centres unmarked) [Compound 149, 2-({2-[4-(2-hydroxyethoxy)pyridin-2-yl]-5H,6H,7H-cyclopenta[d]pyrimidin-4-yl}(methyl)amino)-N-(oxolan-3-yl)acetamide] yielded a pEC50 of 7.2.

Compound `CN(CC(=O)NC1CCCC1)c1nc(-c2cn(C)cn2)nc2c1CCC2` [Compound 150, N-cyclopentyl-2-{methyl[2-(1-methyl-1H-imidazol-4-yl)-5H,6H,7H-cyclopenta[d]pyrimidin-4-yl]amino}acetamide] registered a pEC50 of 7.3.

Regarding `COc1ccnc(-c2nc3c(c(N(C)CC(=O)Nc4ccc(OC)nc4)n2)CCC3)c1` [Compound 151, 2-{[2-(4-methoxypyridin-2-yl)-5H,6H,7H-cyclopenta[d]pyrimidin-4-yl](methyl)amino}-N-(6-methoxypyridin-3-yl)acetamide], the negative logarithm of the EC50 (pEC50) worked out at 8.1.

Compound `COc1ccc(NC(=O)CN(C)c2nc(-c3cc(OC)ccn3)nc3c2CCC3)nc1` [Compound 152, N-(5-methoxypyridin-2-yl)-2-{[2-(4-methoxypyridin-2-yl)-5H,6H,7H-cyclopenta[d]pyrimidin-4-yl](methyl)amino}acetamide] displayed a pEC50 of 7.9.

In the case of `COc1ccnc(-c2nc3c(c(N(C)CC(=O)Nc4cnc(OC)nc4)n2)CCC3)c1` [Compound 153, 2-{[2-(4-methoxypyridin-2-yl)-5H,6H,7H-cyclopenta[d]pyrimidin-4-yl](methyl)amino}-N-(2-methoxypyrimidin-5-yl)acetamide], the pEC50 is recorded as 7.6.

The compound `COc1ccnc(-c2nc3c(c(N(C)CC(=O)Nc4cnn(C)c4)n2)CCC3)c1` [Compound 154, 2-{[2-(4-methoxypyridin-2-yl)-5H,6H,7H-cyclopenta[d]pyrimidin-4-yl](methyl)amino}-N-(1-methyl-1H-pyrazol-4-yl)acetamide] displayed a pEC50 of 7.4.

In turn, `COc1ccnc(-c2nc3c(c(N(C)CC(=O)NC4(C)CCCC4)n2)CCC3)c1` [Compound 155, 2-{[2-(4-methoxypyridin-2-yl)-5H,6H,7H-cyclopenta[d]pyrimidin-4-yl](methyl)amino}-N-(1-methylcyclopentyl)acetamide] yielded a pEC50 of 7.5.

The compound `COc1ccnc(-c2nc3c(c(N(C)CC(=O)N(C)C(C)(C)C)n2)CCC3)c1` [Compound 156, N-tert-butyl-2-{[2-(4-methoxypyridin-2-yl)-5H,6H,7H-cyclopenta[d]pyrimidin-4-yl](methyl)amino}-N-methylacetamide] showed a pEC50 of 7.9.

For the compound `COc1ccnc(-c2nc3c(c(N(C)CC(=O)N(C)C)n2)CCC3)c1` [Compound 157, 2-{[2-(4-methoxypyridin-2-yl)-5H,6H,7H-cyclopenta[d]pyrimidin-4-yl](methyl)amino}-N,N-dimethylacetamide], the pEC50 came to 7.3.

Consider `CN(CC(=O)NC(C)(C)C)c1nc(-c2cc(C#N)ccn2)nc2c1CCC2` [Compound 158, N-tert-butyl-2-{[2-(4-cyanopyridin-2-yl)-5H,6H,7H-cyclopenta[d]pyrimidin-4-yl](methyl)amino}acetamide], for which the pEC50 is recorded as 6.2.

As for `CN(CC(=O)NC(C)(C)C)c1nc(-c2cc(OCC3CC3)ccn2)nc2c1CCC2` [Compound 159, N-tert-butyl-2-({2-[4-(cyclopropylmethoxy)pyridin-2-yl]-5H,6H,7H-cyclopenta[d]pyrimidin-4-yl}(methyl)amino)acetamide], the negative logarithm of the EC50 (pEC50) is 8.0.

`CN(CC(=O)NC(C)(C)C)c1nc(-c2ccn(C)n2)nc2c1CCC2` [Compound 160, N-tert-butyl-2-{methyl[2-(1-methyl-1H-pyrazol-3-yl)-5H,6H,7H-cyclopenta[d]pyrimidin-4-yl]amino}acetamide] displayed a negative logarithm of the EC50 (pEC50) of 5.2.

Compound `CN(CC(=O)NC1(C)CCCC1)c1nc(-c2cn(C)cn2)nc2c1CCC2` [Compound 161, 2-{methyl[2-(1-methyl-1H-imidazol-4-yl)-5H,6H,7H-cyclopenta[d]pyrimidin-4-yl]amino}-N-(1-methylcyclopentyl)acetamide] returned a negative logarithm of the EC50 (pEC50) of 7.4.

One may read the pEC50 as −log10 of the EC50, conventionally taken in molar units. A low value points to a high EC50.
